Data reported in article PMC5823406, “Vehicle development, pharmacokinetics and toxicity of the anti-invasive agent 4-fluoro-3’,4’,5’-trimethoxychalcone in rodents” (PLoS ONE, 2018).
Marks after values point to notes of the source that are not given here.

Test system: CD-1 mice
Assay: 7-Day repeat-dose toxicity study (medicated gel)
Format: in vivo, mouse
Conditions: for Organ weight: Kidneys / Organ weight: Liver / Organ weight: Spleen: Average±SD; for Hyperactivity and increased anxiety on opening of the cages: from day 2 on
Description: Fifteen 7-week old male CD-1 mice, weighing 27 to 34 g, were obtained from Janvier, France. Animals were randomly allocated to one of four cohorts (N = 4 for the 0 mg/kg, 100 mg/kg and 300 mg/kg C16 cohorts, N = 3 for the water control group). Animals were healthy at the start of the trial. Each cohort was housed in one conventional cage with wood chip bedding and kept in a room with a well-controlled temperature (20–24°C) and humidity with 12-h light/dark cycles. Duration of acclimation was five days, during which all animals had ad libitum access to feed and tap water. Feed was obtained from Carfil, Belgium (Complete feed for rats and mice, article n° 10783915). Animals were ear-marked under isoflurane anesthesia (induction 5%, maintenance 2.5%, oxygen 1 L/min) on day -3 of the study. The study was not blinded.
On the morning of day -2 of the study, tap water access was removed from the 0 mg/kg, 100 mg/kg and 300 mg/kg C16 cohorts. These groups were granted access to two non-medicated cups of Medigel sucralose (one in a tailor-made plastic holder with magnetic fixation system to the side of the cage, one in a cardboard holder on top of the bedding material) for an acclimatization period of three days. Note: the magnetic fixation system is preferable, as animals tear and consume the cardboard holders.
Medicated gels were prepared in order to provide animals with a PO C16 dose equaling oral gavage dosing at 0, 100 and 300 mg/kg three times per day (0, 78.43 and 235.29 mg C16 per cup, respectively, assuming a consumption of 7 mL of gel per day and an average animal weight of 30 g). On the morning of day 0 of the study, treatment with two medicated gels was started and maintained up to the morning of day 7 (i.e. a 7-day treatment). Fresh cups were prepared and provided every day. Meanwhile, the water control group was continuously granted unlimited access to tap water. Throughout the study, all animals had ad libitum access to feed, except for the water control group, which was fasted on the evening of day 6, i.e. twelve hours prior to the single PO test article administration. Animal weight, feed and water/gel consumption and the presence of toxic symptoms and autonomic effects were monitored on a daily basis for all cohorts.
On the evening of day 6, blood was collected via the tail vein for the 0, 100 and 300 mg/kg C16 cohorts for determination of the whole blood C16 level. On the morning of day 7, mice of the 0, 100 and 300 mg/kg C16 cohorts were anesthetized by IP injection with 250 mg/kg of Avertin (20 mL/kg, preparation see Section E in S1 File). Blood for C16 determination and hematological and biochemical analysis was collected via cardiac exsanguination (600 μL to 1 mL). Detailed analysis protocols are described below. Afterward, animals were sacrificed by cervical dislocation.
All animals were necropsied and assessed for gross pathology. Liver, kidneys and spleen weights were recorded, and fragments of these organs were fixed in a 4% formaldehyde solution and processed for microscopic evaluation.
Cardiac puncture as described above afforded 0.6–1 mL of blood. Approximately 500 μL thereof was collected in a Greiner Bio 0.5 mL ethylenediaminetetraacetic acid (EDTA) Eppendorf tube for hematological parameter determination and kept at room temperature. The remaining volume was collected in a regular Eppendorf tube and allowed to clot completely at room temperature over 45 min. The tubes were centrifuged at 1,900 x g (3000 rpm) and 4 °C for 10 min using a swinging bucket rotor. The upper serum phase was transferred to a new tube with conical bottom. Care was taken not to disturb the intermediate buffy coat layer. The serum samples were centrifuged at 16,000 x g and 4 °C for 10 min in a fixed-angle rotor. The cleared supernatant was transferred to a new tube without disturbing the pellet, affording 200–500 μL of serum. Samples were diluted to 500 μL with normal saline, flash frozen in liquid N2 and stored at -80 °C prior to analysis. […]

[1] = 100 mg/kg cohort, 7-day PO via medicated gels, average±SD
[2] = 300 mg/kg cohort, 7-day PO via medicated gels
[3] = 300 mg/kg cohort, 7-day PO via medicated gels, average±SD

Molecule `COc1cc(C(=O)/C=C/c2ccc(F)cc2)cc(OC)c1OC` [C16, 4-fluoro-3’,4’,5’-trimethoxychalcone] has an ALP [1] of 118±33 IU/L, an ALT [1] of 70±40 IU/L and an AST [1] of 345±365 IU/L. For the same molecule, the BASO [1] was 0.2±0.2%, the CHO [1] was 96 ± 21 mg/dL and the EO [1] was 0±0%. For the same molecule, the GLUC [1] was 218 ± 30 mg/dL, the HCT [1] was 44.5±5.2% and the HGB [1] was 12.2 ± 0.2 g/dL. For the same molecule, the IG [1] was 0.04±0.06 10^3/μL, the LYMP [1] was 79.2±3.4% and the MCH [1] was 14.7 ± 1.5 pg. The MCV [1] was 53.4 ± 1.8 fL, the MONO [1] was 2.5±0.6% and the NEUT [1] was 16.9±4.9%. The NRBC [1] was 0.75±1.06 10^3/μL, the PLT [1] was 281±33 10^3/μL and the RBC [1] was 8.32±0.69 10^6/μL. For the same molecule, the TP [1] was 42.0 ± 4.5 g/L, the TRIGL [1] was 110 ± 45 mg/dL and the WBC [1] was 3.05±0.08 10^3/μL. The “Organ weight: Kidneys” value (100 mg/kg cohort) was 0.45 ± 0.02 g, the “Organ weight: Liver” value (100 mg/kg cohort) was 1.67 ± 0.33 g and the “Organ weight: Spleen” value (100 mg/kg cohort) was 0.16 ± 0.06 g. For the same molecule, the “Daily gel consumption, average” value (100 mg/kg cohort, Day 1) was 14.9 g/animal, the “Feed consumption, average” value (100 mg/kg cohort, Day 1) was 4.8 g/animal and the Animal weight (100 mg/kg cohort, Day 1, Average±SD) was 30.0 ± 1.7 g. The “Daily gel consumption, average” value (100 mg/kg cohort, Day 2) was 12.3 g/animal, the “Feed consumption, average” value (100 mg/kg cohort, Day 2) was 5.4 g/animal and the Animal weight (100 mg/kg cohort, Day 2, Average±SD) was 30.6 ± 1.6 g. The “Daily gel consumption, average” value (100 mg/kg cohort, Day 3) was 11.2 g/animal, the “Feed consumption, average” value (100 mg/kg cohort, Day 3) was 6.1 g/animal and the Animal weight (100 mg/kg cohort, Day 3, Average±SD) was 31.2 ± 2.0 g. For the same molecule, the “Daily gel consumption, average” value (100 mg/kg cohort, Day 4) was 15.1 g/animal, the “Feed consumption, average” value (100 mg/kg cohort, Day 4) was 6.9 g/animal and the Animal weight (100 mg/kg cohort, Day 4, Average±SD) was 32.0 ± 2.1 g. The “Daily gel consumption, average” value (100 mg/kg cohort, Day 5) was 18.1 g/animal, the “Feed consumption, average” value (100 mg/kg cohort, Day 5) was 5.9 g/animal and the Animal weight (100 mg/kg cohort, Day 5, Average±SD) was 32.4 ± 2.0 g. For the same molecule, the “Daily gel consumption, average” value (100 mg/kg cohort, Day 6) was 13.1 g/animal, the “Feed consumption, average” value (100 mg/kg cohort, Day 6) was 5.6 g/animal and the Animal weight (100 mg/kg cohort, Day 6, Average±SD) was 32.1 ± 2.0 g. For the same molecule, the “Daily gel consumption, average” value (100 mg/kg cohort, Day 7) was 11.8 g/animal, the “Feed consumption, average” value (100 mg/kg cohort, Day 7) was 5.6 g/animal and the Animal weight (100 mg/kg cohort, Day 7, Average±SD) was 32.7 ± 2.2 g. The “Hyperactivity and increased anxiety on opening of the cages” value (100 mg/kg cohort) was “slightly noticeable”, the IG [2] was 0 10^3/μL and the LYMP [2] was 60.1%. For the same molecule, the NEUT [2] was 39.9%, the ALP [3] was 94±18 IU/L and the ALT [3] was 43±9 IU/L. For the same molecule, the AST [3] was 221±65 IU/L, the BASO [3] was 0±0% and the CHO [3] was 73 ± 18 mg/dL. For the same molecule, the EO [3] was 0±0%, the GLUC [3] was 206±24 ^a mg/dL and the HCT [3] was 34.0±7.78%. The HGB [3] was 10.1 ± 2.9 g/dL, the MCH [3] was 16.0 ± 0.2 pg and the MCV [3] was 54.5 ± 4.24 fL. For the same molecule, the MONO [3] was 2.6±3.7%, the NRBC [3] was 0.35±0.49 10^3/μL and the RBC [3] was 6.32±1.92 10^6/μL. The TP [3] was 31.6 ± 21.3 g/L, the TRIGL [3] was 123 ± 55 mg/dL and the WBC [3] was 2.97±0.94 10^3/μL. For the same molecule, the “Organ weight: Liver” value (300 mg/kg cohort) was 1.70 ± 0.19 g, the “Organ weight: Spleen” value (300 mg/kg cohort) was 0.15 ± 0.04 g and the “Organ weight: Kidneys” value (300 mg/kg cohort, p 0.001) was 0.39 ± 0.02 g. The “Daily gel consumption, average” value (300 mg/kg cohort, Day 1) was 15.2 g/animal, the “Feed consumption, average” value (300 mg/kg cohort, Day 1) was 6.0 g/animal and the Animal weight (300 mg/kg cohort, Day 1, Average±SD) was 28.6 ± 0.6 g. The “Daily gel consumption, average” value (300 mg/kg cohort, Day 2) was 12.6 g/animal, the “Feed consumption, average” value (300 mg/kg cohort, Day 2) was 6.3 g/animal and the Animal weight (300 mg/kg cohort, Day 2, Average±SD) was 29.8 ± 0.7 g. The “Daily gel consumption, average” value (300 mg/kg cohort, Day 3) was 14.7 g/animal, the “Feed consumption, average” value (300 mg/kg cohort, Day 3) was 8.4 g/animal and the Animal weight (300 mg/kg cohort, Day 3, Average±SD) was 29.6 ± 0.8 g. For the same molecule, the “Daily gel consumption, average” value (300 mg/kg cohort, Day 4) was 12.9 g/animal, the “Feed consumption, average” value (300 mg/kg cohort, Day 4) was 6.6 g/animal and the Animal weight (300 mg/kg cohort, Day 4, Average±SD) was 30.5 ± 1.4 g. The “Daily gel consumption, average” value (300 mg/kg cohort, Day 5) was 15.4 g/animal, the “Feed consumption, average” value (300 mg/kg cohort, Day 5) was 6.1 g/animal and the Animal weight (300 mg/kg cohort, Day 5, Average±SD) was 30.7 ± 1.6 g. The “Daily gel consumption, average” value (300 mg/kg cohort, Day 6) was 13.6 g/animal, the “Feed consumption, average” value (300 mg/kg cohort, Day 6) was 7.1 g/animal and the Animal weight (300 mg/kg cohort, Day 6, Average±SD) was 31.1 ± 1.8 g. For the same molecule, the “Daily gel consumption, average” value (300 mg/kg cohort, Day 7) was 12.9 g/animal, the “Feed consumption, average” value (300 mg/kg cohort, Day 7) was 6.2 g/animal and the Animal weight (300 mg/kg cohort, Day 7, Average±SD) was 31.3 ± 1.2 g. For the same molecule, the “Hyperactivity and increased anxiety on opening of the cages” value (300 mg/kg cohort) was “noticeable”, the “Kidney weight versus 100 mg/kg and 0 mg/kg cohort” value (300 mg/kg cohort, p = 0.001) was “slight but significant decrease” and the “Gross lesions on detailed necropsy” value (medicated gel, 7 days) was “No gross lesions”. For the same molecule, the “Histology of the kidney and spleen” value (medicated gel, 7 days) was “no abnormalities”.
